Here are results for nine molecules from patent US10590153B2, “Process for producing crystalline DTPMP” (Zschimmer & Schwarz Mohsdorf GmbH & Co. KG, priority 2014, dated 2020).

This data set in a line: Drying behaviour of crystallisates in dependence on residual moisture and product purity (tempering in sealed vials, visual points classification). The format is physicochemical. More on the design: key: 5 points=sample unchanged; 4 points=sample compacted/started to dissolve; 3 points=sample visibly started to dissolve; 2 points=sample cloudy highly viscous solution; 1 point=sample dissolved to clear solution. The settings on record: sealed vial, shaken. The procedure: This dependency is shown by the following example for determining the drying behaviour of crystallisates in dependence on residual moisture and product purity.
A DTPMP solid isolated by recrystallisation is characterised by residues of adhering mother liquor via the quality parameters listed in the following table. Determination of the residual moisture content by means of a halogen dryer HB 43 S/Mettler Toledo is carried out isothermally at the indicated temperature using the shutoff criterion 4 (AK4=mean weight loss is <1 mg per 90 seconds):
After a purification step, which consists in suspending the solid in water and then separating it off by means of a filtering centrifuge, the following quality criteria are obtained:
The adhering residual moisture is removed stepwise from these solid samples in a rotary evaporator at 40° C. and 5 mbar vacuum, so that a series of samples with decreasing residual moisture content is prepared from each of the two purity grades (unwashed and washed).
4 ml borosilicate vials are filled with this sample material and the filling level is adjusted to ⅔ of the height of the glass by gentle tapping. In order to minimise evaporative losses, the screw cap of each vial is additionally sealed with a polyethylene film. All the samples are shaken in parallel in a tempering block on a heating and cooling shaker ThermoTwister comfort/Quantifoil Instruments GmbH for a defined period at a defined temperature and then assessed visually. Classification is made according to the following points system: […]

Where [1] appears, read: Temperature 35 °C, test duration 24 h.
Setting [2] is: Temperature 40 °C, test duration 24 h.
Setting [3] is: Temperature 45 °C, test duration 24 h.
Where [4] appears, read: Temperature 50 °C, test duration 24 h.
The mark [5] stands for this setting: Temperature 55 °C, test duration 24 h.
The mark [6] stands for this setting: Temperature 60 °C, test duration 24 h.
Setting [7] is: Temperature 65 °C, test duration 5 h.
[8] abbreviates: Temperature 70 °C, test duration 5 h.
Where [9] appears, read: Temperature 75 °C, test duration 5 h.
Setting [10] is: Temperature 80 °C, test duration 5 h.
[11] abbreviates: Temperature 85 °C, test duration 5 h.
[12] abbreviates: Temperature 90 °C, test duration 5 h.

As to `O=P(O)(O)CN(CCN(CP(=O)(O)O)CP(=O)(O)O)CCN(CP(=O)(O)O)CP(=O)(O)O` [unwashed quality 31 [% by mass] residual moisture], the “Visual classification at the end of the tempering step (points system)” value (“Visual classification at the end” for short) is given as 5 under setting [1]; 5 under setting [2]; 5 under setting [3]; 5 under setting [4]; 4 under setting [5]; 3 under setting [6]. In addition, the “Visual classification at the end” value worked out at 1 under setting [7]; 1 under setting [8]; 1 under setting [9]; 1 under setting [10]; 1 under setting [11]; 1 under setting [12].

As for `O=P(O)(O)CN(CCN(CP(=O)(O)O)CP(=O)(O)O)CCN(CP(=O)(O)O)CP(=O)(O)O` [unwashed quality 19 [% by mass] residual moisture], the “Visual classification at the end” value under setting [1] was 5; the “Visual classification at the end” value under setting [2] is given as 5; the “Visual classification at the end” value under setting [3] was 5; the “Visual classification at the end” value under setting [4] was 5; the “Visual classification at the end” value under setting [5] turned out to be 5; the “Visual classification at the end” value under setting [6] is listed as 4. The “Visual classification at the end” value reads like this: under setting [7], 2; under setting [8], 2; under setting [9], 2; under setting [10], 2; under setting [11], 2; under setting [12], 2.

As for `O=P(O)(O)CN(CCN(CP(=O)(O)O)CP(=O)(O)O)CCN(CP(=O)(O)O)CP(=O)(O)O` [unwashed quality 36 [% by mass] residual moisture], the “Visual classification at the end” value is 5 under setting [1]; 5 under setting [2]; 5 under setting [3]; 5 under setting [4]; 5 under setting [5]; 3 under setting [6]. In addition, the “Visual classification at the end” value is listed as 1 under setting [7]; 1 under setting [8]; 1 under setting [9]; 1 under setting [10]; 1 under setting [11]; 1 under setting [12].

Regarding `O=P(O)(O)CN(CCN(CP(=O)(O)O)CP(=O)(O)O)CCN(CP(=O)(O)O)CP(=O)(O)O` [unwashed quality 40 [% by mass] residual moisture], the “Visual classification at the end” value reads like this: under setting [1], 5; under setting [2], 5; under setting [3], 5; under setting [4], 5; under setting [5], 5; under setting [6], 3. Besides, the “Visual classification at the end” value was 1 under setting [7]; 1 under setting [8]; 1 under setting [9]; 1 under setting [10]; 1 under setting [11]; 1 under setting [12].

On to `O=P(O)(O)CN(CCN(CP(=O)(O)O)CP(=O)(O)O)CCN(CP(=O)(O)O)CP(=O)(O)O` [unwashed quality 24 [% by mass] residual moisture], for which the “Visual classification at the end” value is listed as 5 under setting [1]; 5 under setting [2]; 5 under setting [3]; 4 under setting [4]; 4 under setting [5]; 3 under setting [6]. Further, the “Visual classification at the end” value under setting [7] was 2; the “Visual classification at the end” value under setting [8] worked out at 1; the “Visual classification at the end” value under setting [9] came out at 1; the “Visual classification at the end” value under setting [10] is recorded as 1; the “Visual classification at the end” value under setting [11] is listed as 1; the “Visual classification at the end” value under setting [12] turned out to be 1.

As to `O=P(O)(O)CN(CCN(CP(=O)(O)O)CP(=O)(O)O)CCN(CP(=O)(O)O)CP(=O)(O)O` [unwashed quality 51 [% by mass] residual moisture], the “Visual classification at the end” value amounted to 5 under setting [1]; 5 under setting [2]; 5 under setting [3]; 5 under setting [4]; 5 under setting [5]; 2 under setting [6]. Besides, the “Visual classification at the end” value under setting [7] was 1; the “Visual classification at the end” value under setting [8] is given as 1; the “Visual classification at the end” value under setting [9] was 1; the “Visual classification at the end” value under setting [10] was determined as 1; the “Visual classification at the end” value under setting [11] came to 1; the “Visual classification at the end” value under setting [12] was determined as 1.

Regarding `O=P(O)(O)CN(CCN(CP(=O)(O)O)CP(=O)(O)O)CCN(CP(=O)(O)O)CP(=O)(O)O` [washed quality 11 [% by mass] residual moisture], the “Visual classification at the end” value is, setting by setting: under setting [1], 5; under setting [2], 5; under setting [3], 5; under setting [4], 5; under setting [5], 5; under setting [6], 5. In addition, the “Visual classification at the end” value is, setting by setting: under setting [7], 5; under setting [8], 5; under setting [9], 5; under setting [10], 5; under setting [11], 5; under setting [12], 5.

Regarding `O=P(O)(O)CN(CCN(CP(=O)(O)O)CP(=O)(O)O)CCN(CP(=O)(O)O)CP(=O)(O)O` [washed quality 53 [% by mass] residual moisture], the “Visual classification at the end” value was found to be 5 under setting [1], 1 under setting [10], 1 under setting [11] and 1 under setting [12].

`O=P(O)(O)CN(CCN(CP(=O)(O)O)CP(=O)(O)O)CCN(CP(=O)(O)O)CP(=O)(O)O` [unwashed quality 47 [% by mass] residual moisture]: the “Visual classification at the end” value was determined as 5 under setting [1]; 5 under setting [2]; 5 under setting [3]; 5 under setting [4]; 5 under setting [5]; 3 under setting [6]. Further, the “Visual classification at the end” value came to 1 under setting [7]; 1 under setting [8]; 1 under setting [9]; 1 under setting [10]; 1 under setting [11]; 1 under setting [12].
